Laboratory results taken from PMC8410599, “The structural basis of odorant recognition in insect olfactory receptors” (Nature, 2021).
Like-named read-outs stand apart in the source and are kept apart here. Values belong to the compound of their own block, whether it stands above or below them.

Assays:
[1] = biological target: T1, MhOR5 (Machilis hrabei, UniProt Z9G0B3H7M0); assay: GCaMP6s calcium flux, HEK293; assay type: cell-based; settings: agonist, sub-maximal efficacy; 2 mM CaCl2, pH 7.4
T1 construct: Lys2-Pro474; cryo-EM: N-terminal Strep II-sfGFP cleaved with HRV 3C, HEK293S GnTI-; calcium assay: pME18s vector without fluorescent marker, HEK293 with GCaMP6s; homotetramer
T1 sequence (Z9G0B3H7M0 6-478): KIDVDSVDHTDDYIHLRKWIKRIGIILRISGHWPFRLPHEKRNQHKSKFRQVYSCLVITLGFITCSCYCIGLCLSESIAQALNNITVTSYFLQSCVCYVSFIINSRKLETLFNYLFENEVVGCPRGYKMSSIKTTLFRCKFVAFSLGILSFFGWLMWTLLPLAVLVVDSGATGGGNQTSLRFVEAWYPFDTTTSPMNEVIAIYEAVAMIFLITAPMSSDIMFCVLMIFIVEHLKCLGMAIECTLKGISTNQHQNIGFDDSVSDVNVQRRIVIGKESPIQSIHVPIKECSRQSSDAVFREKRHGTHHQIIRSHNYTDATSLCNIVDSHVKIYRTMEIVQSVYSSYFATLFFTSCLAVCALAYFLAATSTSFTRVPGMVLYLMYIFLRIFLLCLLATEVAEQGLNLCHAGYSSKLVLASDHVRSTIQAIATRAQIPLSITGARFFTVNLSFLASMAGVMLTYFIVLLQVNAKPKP

[2] = biological target: T2, Orco (Apocrypta bakeri, UniProt B0FAQ4); assay: cell-based; design: species or system HEK293; GCaMP6s calcium fluorescence dose-response of olfactory receptor channel expressed in HEK293 cells
T2 construct: gene Or2; expressed in HEK293 cells with GCaMP6s; homotetramer
T2 sequence (B0FAQ4 1-474): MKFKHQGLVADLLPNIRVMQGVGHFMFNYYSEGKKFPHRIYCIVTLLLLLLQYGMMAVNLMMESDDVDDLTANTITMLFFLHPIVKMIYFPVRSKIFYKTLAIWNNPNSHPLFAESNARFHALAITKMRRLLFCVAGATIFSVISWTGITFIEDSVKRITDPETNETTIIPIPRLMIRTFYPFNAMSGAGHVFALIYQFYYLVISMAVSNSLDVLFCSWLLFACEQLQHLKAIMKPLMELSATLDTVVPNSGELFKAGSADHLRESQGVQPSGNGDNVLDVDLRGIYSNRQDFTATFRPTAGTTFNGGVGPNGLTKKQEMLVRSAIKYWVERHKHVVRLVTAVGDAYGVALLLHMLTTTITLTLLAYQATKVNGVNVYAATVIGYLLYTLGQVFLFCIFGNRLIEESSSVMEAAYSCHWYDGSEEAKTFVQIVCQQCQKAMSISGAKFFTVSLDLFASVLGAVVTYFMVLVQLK
Experimental: (§1) Seven ligand concentrations were used for each transfection condition in sequential dilutions of 3, alongside a control well of only reading buffer. Ligands were dissolved in DMSO to 150 mM, then diluted with reading buffer to a highest final-well concentration of 0.5 mM (DMSO never exceeded 0.5%). Water-soluble ligands (arabinose, caffeine, denatonium, glucose, MSG, sucrose) were dissolved directly into reading buffer. If experimental data indicated a more sensitive response than this range, the concentration was adjusted accordingly. Ligand concentrations for mutants were the same as for the corresponding wild-type OR. Each plate contained a negative control of GCaMP6s transfected alone and exposed to eugenol for MhOR5 and VUAA1 for Orco experiments. […] A control of DMSO alone was also tested to ensure no activity effects were due to the solvent. Each concentration of ligand was applied to four technical replicates, which were averaged and considered a single biological replicate. The baseline fluorescence (F) was calculated as the average fluorescence of the 30 s before odour was added to the plate. Within each well, ΔF was calculated as the difference between the average of the last 10 s of fluorescence and the baseline F. ΔF/F was then calculated as the ΔF divided by the baseline fluorescence (F). […]

[3] = biological target: T2, Orco; assay: cell-based; design: species or system HEK293; GCaMP6s calcium fluorescence (ΔF/F) dose-response in HEK cells expressing the odorant receptor
Experimental: as §1

SMILES: CCN(CC)C(=O)c1cccc(C)c1 [DEET]
EC50 [1]: MhOR5 was also activated by the insect repellent DEET

EC50 [2]: 55.2 µM
SMILES: CCc1ccc(NC(=O)CSc2nnc(-c3cccnc3)n2CC)cc1 [VUAA1]

EC50 [3]: > 500 µM
SMILES: CC(=O)c1ccccc1 [acetophenone]
